According to paper PMC10787893, “Expression and characterization of the new antimicrobial peptide AP138L-arg26 anti Staphylococcus aureus” (Applied Microbiology and Biotechnology, 2024):
≈ marks a conversion by molar mass, not a printed value. Where two headings read alike, the source gives them in different places. Bridge positions count the residues as written; N and C are the ends. Peptide text beside a SMILES is read from it.

Key:
[1] = system: intracellular S. aureus CVCC 546 in mouse macrophages RAW264.7 and bovine endometrial epithelial cells BNCC359233; assay: Intracellular antibacterial activity; format: cell-based, Staphylococcus aureus; conditions: 5 × MIC; n = 3
Excerpt: The method of intracellular bactericidal effect was described previously (Wang et al. [2018]). Only the number of cells and bacteria changed from 2.5 × 10^5 to 2 × 10^5 cells/mL.

S. aureus CVCC 546 [2] = assay: Growth curve of S. aureus; format: cell-based, Staphylococcus aureus; conditions: AP138L-arg26 8 µg/mL (2 × MIC), ceftiofur sodium 0.25 µg/mL (1/8 MIC), alone or combined; 1 × 10^5 CFU/mL
Protocol: Samples were taken during the logarithmic growth of S. aureus and diluted to 1 × 10^5 CFU/mL (Delpech et al. [2019]). Different concentrations of AP138L-arg26, ceftiofur sodium, or a combination of them with an equal volume of bacteria were added to a 96-well microplate. The growth curves were recorded using a fully automatic growth curve recording instrument.

S. aureus CVCC 546 [3] = assay: pH stability, MIC after treatment; format: physicochemical, Staphylococcus aureus
S. aureus CVCC 546 [4] = assay: Salt stability, MIC after treatment; format: physicochemical, Staphylococcus aureus; conditions: then MIC assay
S. aureus CVCC 546 [5] = assay: Serum stability, MIC after treatment; format: in vitro ADME, Staphylococcus aureus; conditions: then MIC
Excerpt: Table 4 The stability of AMPs in different environments | column: MIC

S. aureus CVCC 546 [6] = assay: Artificial gastric juice stability, MIC after treatment; format: in vitro ADME, Staphylococcus aureus
S. aureus CVCC 546 [7] = assay: Artificial intestinal juice (trypsin) stability, MIC after treatment; format: in vitro ADME, Staphylococcus aureus; conditions: then MIC assay
[8] = system: mouse macrophages RAW264.7; assay: Cytotoxicity, MTT method; format: cell-based; conditions: 256 µg/mL; RAW264.7, MTT
Excerpt: The cytotoxicity of AP138L-arg26 to mouse macrophages RAW264.7 was detected by the thiazolyl blue tetrazolium bromide (MTT) method as described previously (Shen et al. [2021]).

S. aureus CVCC 546 [9] = assay: SYTO9/PI membrane integrity assay; format: cell-based, Staphylococcus aureus; conditions: 2 × MIC, 37 °C, 1 h; 1 × 10^9 CFU/mL; fluorescence microscopy
Excerpt: To explore the disruption of bacterial cell membranes by the AP138L-arg26, a SYTO9/PI kit was used to detect the integrity of cell membranes (L7007 LIVE/DEAD^R BacLight™ Bacerial Viability Kits). The unique feature of this kit is that SYTO9 alone can pass through integral cell membranes, while PI can only penetrate damaged cell membranes. […] Finally, the results were observed using fluorescence microscopy.

S. aureus CVCC 546 [10] = assay: Potassium ion (K+) leakage, ICP-MS; format: cell-based, Staphylococcus aureus
Excerpt: The integrity effect of antimicrobial peptide AP138L-arg26 on bacterial cell membranes was further verified, and the K^+ leakage assay was previously described (Li et al. [2020]). Briefly, the main procedures were as follows: Firstly, prepare the S. aureus CVCC 546 bacteria suspension at a concentration of 1 × 10^8 CFU/mL. […] Finally, the supernatants were detected using inductively coupled plasma mass spectrometry (ICP-MS) (SantaClara, CA, USA).

S. aureus = assay: Membrane fluidity assay, Laurdan GP; format: cell-based, Staphylococcus aureus; conditions: 2 × MIC; 10 µM Laurdan; untreated 0.22
Protocol: The final concentration of 10 µM Laurdan was used to detect the effect of AP138L-arg26 on bacterial cell membrane fluidity (Shi et al. [2022]). Briefly, (1) co-incubation of bacteria with Laurdan; (2) the stained bacteria are co-incubated with the peptide; (3) spectrophotometer (Tecan, Männedorf, Switzerland) detection. The calculation formula: generalized polarization (GP) = (I435 − I490)/(I435 + I490).

S. aureus CVCC 546 [11] = assay: Intracellular ATP determination; format: cell-based, Staphylococcus aureus
Excerpt: As ATP is the most direct source of energy for living organisms, the effect of antimicrobial peptides on ATP was explored with an ATP assay kit (Beyotime, Shanghai, China). […] The luminescence was detected using an Infinite M200 Microplate reader (Tecan, Luminescence signals).

S. aureus CVCC 546 [12] = conditions: for FIC: FIC = MICc/MICa
Protocol: The synergistic effects of AP138L-arg26 with different antibiotics were evaluated using a checkerboard assay. The synergistic effect was calculated using the FICI as follows: FICI = FIC of AP138L-arg26 + FIC of antibiotic; FIC = MICc/MICa, where MICc is the MIC of the peptide and antibiotic in combination, and MICa is the MIC of the peptide/antibiotic alone (Blier et al. [2010]). Three parallel experiments were performed for each group. The efficacy of combination therapy was defined as FICI ≤ 0.5, 0.5 < FICI ≤ 1, 1 < FICI ≤ 4, and FICI > 4 indicating synergy, addition, no difference, and antagonism, respectively.

## CC[C@H](C)[C@@H]1NC(=O)[C@H](CO)NC(=O)[C@H](CCCCN)NC(=O)[C@@H]2CSSC[C@@H](C(=O)N[C@@H](Cc3ccc(O)cc3)C(=O)O)NC(=O)[C@H](CCCCN)NC(=O)[C@@H]3CSSC[C@H](NC(=O)[C@H](CCCNC(=N)N)NC(=O)[C@H](CC(C)C)NC(=O)[C@H](CC(=O)O)NC(=O)[C@H](CC(=O)O)NC(=O)[C@H](CCC(=O)O)NC(=O)[C@H](CO)NC(=O)[C@H](Cc4c[nH]c5ccccc45)NC(=O)[C@@H]4CCCN4C(=O)CNC(=O)[C@H](CC(N)=O)NC(=O)[C@@H](NC(=O)CNC(=O)[C@H](Cc4ccccc4)NC(=O)CN)CSSC[C@H](NC(=O)[C@H](Cc4ccc(O)cc4)NC(=O)CNC(=O)CNC(=O)[C@H](CCCNC(=N)N)NC(=O)[C@H](Cc4ccc(O)cc4)NC(=O)CNC(=O)[C@H](CCCCN)NC1=O)C(=O)N[C@@H](C)C(=O)N[C@@H](CCCCN)C(=O)NCC(=O)NCC(=O)N[C@@H](Cc1ccccc1)C(=O)N[C@@H](C(C)C)C(=O)N3)C(=O)N[C@@H](Cc1c[nH]cn1)C(=O)N[C@@H](CCCNC(=N)N)C(=O)N[C@@H](Cc1c[nH]cn1)C(=O)N2 [AP138L-arg26] (H-GFGCNGPWSEDDLRCHRHCKSIKGYRGGYCAKGGFVCKCY-OH; disulfide 4-30, 15-37, 19-39; N-terminus and C-terminus assumed)
[1]
  intracellular bacteria killed: more than 70%
S. aureus CVCC 546 [2]
  effect on the growth of S. aureus CVCC 546: little effect on the growth
S. aureus CVCC 546 [3]; pH 2–10, 1 h, MIC assay
  antimicrobial activity after different pH values (2–10): unaffected
S. aureus CVCC 546 [3]; peptide incubated at pH 2 for 1 h at 37 °C, then MIC assay
  MIC, pH 2: 8 µg/mL
S. aureus CVCC 546 [3]; peptide incubated at pH 4 for 1 h at 37 °C, then MIC assay
  MIC, pH 4: 16 µg/mL
S. aureus CVCC 546 [3]; peptide incubated at pH 6 for 1 h at 37 °C, then MIC assay
  MIC, pH 6: 16 µg/mL
S. aureus CVCC 546 [3]; peptide incubated at pH 8 for 1 h at 37 °C, then MIC assay
  MIC, pH 8: 8 µg/mL
S. aureus CVCC 546 [3]; peptide incubated at pH 10 for 1 h at 37 °C, then MIC assay
  MIC, pH 10: 16 µg/mL
S. aureus CVCC 546 [4]; peptide incubated with 2.5 mM CaCl2 for 1 h at 37 °C
  MIC, CaCl2 (2.5 mM): 8 µg/mL
S. aureus CVCC 546 [4]; peptide incubated with 2.5 mM KCl for 1 h at 37 °C
  MIC, KCl (2.5 mM): 8 µg/mL
S. aureus CVCC 546 [4]; peptide incubated with 2.5 mM MgCl2 for 1 h at 37 °C
  MIC, MgCl2 (2.5 mM): 16 µg/mL
S. aureus CVCC 546 [4]; peptide incubated with 5 mM CaCl2 for 1 h at 37 °C
  MIC, CaCl2 (5 mM): 16 µg/mL
S. aureus CVCC 546 [4]; peptide incubated with 5 mM KCl for 1 h at 37 °C
  MIC, KCl (5 mM): 8 µg/mL
S. aureus CVCC 546 [4]; peptide incubated with 5 mM MgCl2 for 1 h at 37 °C
  MIC, MgCl2 (5 mM): 16 µg/mL
S. aureus CVCC 546 [4]; peptide incubated with 50 mM NaCl for 1 h at 37 °C
  MIC, NaCl (50 mM): 8 µg/mL
S. aureus CVCC 546 [4]; peptide incubated with 100 mM NaCl for 1 h at 37 °C
  MIC, NaCl (100 mM): 8 µg/mL
S. aureus CVCC 546 [4]; peptide incubated with 150 mM NaCl for 1 h at 37 °C
  MIC, NaCl (150 mM): 8 µg/mL
S. aureus CVCC 546 [4]; peptide incubated with 200 mM NaCl for 1 h at 37 °C
  MIC, NaCl (200 mM): 16 µg/mL
S. aureus CVCC 546 [4]; peptide incubated with 300 mM NaCl for 1 h at 37 °C
  MIC, NaCl (300 mM): 16 µg/mL
S. aureus CVCC 546 [4]; peptide incubated with […] CaCl2 for 1 h at 37 °C
  MIC, CaCl2 ([…]): 8 µg/mL
S. aureus CVCC 546 [4]; peptide incubated with […] KCl for 1 h at 37 °C
  MIC, KCl ([…]): 8 µg/mL
S. aureus CVCC 546 [4]; peptide incubated with […] MgCl2 for 1 h at 37 °C
  MIC, MgCl2 ([…]): 8 µg/mL
S. aureus CVCC 546 [5]; peptide in 25% serum for 0.5 h
  MIC, 25% serum (0.5 h): 8 µg/mL (≈ 1.8 µM)
S. aureus CVCC 546 [5]; peptide in 25% serum for 1 h
  MIC, 25% serum (1 h): 16 µg/mL (≈ 3.59 µM)
S. aureus CVCC 546 [5]; peptide in 25% serum for 2 h
  MIC, 25% serum (2 h): 16 µg/mL (≈ 3.59 µM)
S. aureus CVCC 546 [5]; peptide in 25% serum for 4 h
  MIC, 25% serum (4 h): 8 µg/mL (≈ 1.8 µM)
S. aureus CVCC 546 [5]; peptide in 25% serum for 6 h
  MIC, 25% serum (6 h): 16 µg/mL (≈ 3.59 µM)
S. aureus CVCC 546 [5]; peptide in 25% serum for 8 h
  MIC, 25% serum (8 h): 8 µg/mL (≈ 1.8 µM)
S. aureus CVCC 546 [5]; peptide in 50% serum for 0.5 h
  MIC, 50% serum (0.5 h): 8 µg/mL (≈ 1.8 µM)
S. aureus CVCC 546 [5]; peptide in 50% serum for 1 h
  MIC, 50% serum (1 h): 8 µg/mL (≈ 1.8 µM)
S. aureus CVCC 546 [5]; peptide in 50% serum for 2 h
  MIC, 50% serum (2 h): 8 µg/mL (≈ 1.8 µM)
S. aureus CVCC 546 [5]; peptide in 50% serum for 4 h
  MIC, 50% serum (4 h): 8 µg/mL (≈ 1.8 µM)
S. aureus CVCC 546 [5]; peptide in 50% serum for 6 h
  MIC, 50% serum (6 h): 8 µg/mL (≈ 1.8 µM)
S. aureus CVCC 546 [5]; peptide in 50% serum for 8 h
  MIC, 50% serum (8 h): 8 µg/mL (≈ 1.8 µM)
S. aureus CVCC 546 [6]; artificial gastric juice, MIC assay
  antimicrobial activity after gastric juice: unaffected
S. aureus CVCC 546 [6]; peptide in artificial gastric juice for 0.25 h, then MIC assay
  MIC, Gastric juice (0.25 h): 4 µg/mL (≈ 0.898 µM)
S. aureus CVCC 546 [6]; peptide in artificial gastric juice for 0.5 h, then MIC assay
  MIC, Gastric juice (0.5 h): 4 µg/mL (≈ 0.898 µM)
S. aureus CVCC 546 [6]; peptide in artificial gastric juice for 1 h, then MIC assay
  MIC, Gastric juice (1 h): 4 µg/mL (≈ 0.898 µM)
S. aureus CVCC 546 [6]; peptide in artificial gastric juice for 2 h, then MIC assay
  MIC, Gastric juice (2 h): 8 µg/mL (≈ 1.8 µM)
S. aureus CVCC 546 [7]; peptide in artificial intestinal juice for 0.25 h
  MIC, Intestinal juice (0.25 h): > 64 µg/mL
S. aureus CVCC 546 [7]; peptide in artificial intestinal juice for 0.5 h
  MIC, Intestinal juice (0.5 h): > 64 µg/mL
S. aureus CVCC 546 [7]; peptide in artificial intestinal juice for 1 h
  MIC, Intestinal juice (1 h): > 64 µg/mL
S. aureus CVCC 546 [7]; peptide in artificial intestinal juice for 2 h
  MIC, Intestinal juice (2 h): > 64 µg/mL
[8]
  cell viability: over 75%
S. aureus CVCC 546 [9]
  cells stained red by PI: more than 50%
S. aureus CVCC 546 [10]; 2 × MIC, 37 °C, 1 × 10^8 CFU/mL, ICP-MS, untreated 0.02 mg/L
  extracellular K+ leakage level: 0.05 mg/L
S. aureus CVCC 546 [10]; as given in the abstract
  intracellular potassium leakage relative to control: 2.5 fold
S. aureus
  Laurdan GP: 0.18
S. aureus CVCC 546 [11]; 1 × MIC
  intracellular ATP, times higher than the untreated group: 7.6 times
S. aureus CVCC 546 [11]; 2 × MIC
  intracellular ATP, times higher than the untreated group: 8.2 times
S. aureus CVCC 546 [11]; 4 × MIC (maximum)
  intracellular ATP, times higher than the untreated group: 8.5 times
S. aureus CVCC 546 [12]; combination AP138L-arg26-Streptomycin sulfate
  FIC: 0.5
S. aureus CVCC 546 [12]; combination AP138L-arg26-ampicillin
  FIC: 1
S. aureus CVCC 546 [12]; combination AP138L-arg26-ceftiofur sodium
  FIC: 0.0625
S. aureus CVCC 546 [12]; MIC of peptide/antibiotic alone, three parallel experiments
  MICa: 4 µg/mL
S. aureus CVCC 546 [12]; in combination AP138L-arg26-Streptomycin sulfate
  MICc: 2 µg/mL
S. aureus CVCC 546 [12]; in combination AP138L-arg26-ampicillin
  MICc: 4 µg/mL
S. aureus CVCC 546 [12]; in combination AP138L-arg26-ceftiofur sodium
  MICc: 0.25 µg/mL
